Source: patent publication US20210246157A1, “CAMPTOTHECIN DERIVATIVES AND PREPARATION METHODS AND APPLICATIONS THEREOF” (priority 2018, published 2021)
pIC50: −log10 of the molar value. ≈ marks a conversion by molar mass, not a printed value. Like-named read-outs stand apart in the source and are kept apart here.

Key:
SW-480 = assay: Cytotoxicity test (MTT, 72 h); conditions: Homo sapiens, SW480, 72 h, read-out: 50% Inhibiting Concentration value (IC50)
Procedure: (§1) Cells at logarithmic growth period are inoculated in a 96-well plate overnight, then drugs with a certain gradient concentrations are added, and incubation is carried out in a cell culture chamber (5% CO2, 37° C.) for 72 h.

HCT-116 = assay: Cytotoxicity test (MTT, 72 h); conditions: Homo sapiens, HCT-116, 72 h, read-out: 50% Inhibiting Concentration value (IC50)
Procedure: (§2) In order to investigate the antitumor activities of the compounds, a variety of tumor cell lines for test are selected. Cells at logarithmic growth period are inoculated in a 96-well plate overnight, then drugs with a certain gradient concentrations are added, and incubation is carried out in a cell culture chamber (5% CO2, 37° C.) for 72 h.

HepG2 = assay: Cytotoxicity test (MTT, 72 h); conditions: Homo sapiens, HepG2, 72 h, read-out: 50% Inhibiting Concentration value (IC50)
Procedure: as §2

SKOV-3 = assay: Cytotoxicity test (MTT, 72 h); conditions: Homo sapiens, SK-OV-3, 72 h, read-out: 50% Inhibiting Concentration value (IC50)
Procedure: as §1

BGC-823 = assay: Cytotoxicity test (MTT, 72 h); conditions: Homo sapiens, BGC-823, 72 h, read-out: 50% Inhibiting Concentration value (IC50)
Procedure: as §2

MDA-MB-231 = assay: Cytotoxicity test (MTT, 72 h); conditions: Homo sapiens, MDA-MB-231, 72 h, read-out: 50% Inhibiting Concentration value (IC50)
Procedure: as §2

H1975 = assay: Cytotoxicity test (MTT, 72 h); conditions: Homo sapiens, NCI-H1975, 72 h, read-out: 50% Inhibiting Concentration value (IC50)
Procedure: as §2

[1] = Multi-dose in vivo antitumor activity study, mouse weight (Example 20); set-up: species or system mice; conditions: caudal vein once every 2 days
Procedure: The drugs are administered through the caudal veins of mice once every 2 days for a total of 7 times.
At the end of the treatment cycle, the orbital venous blood of the mice is collected for later blood routine test, the mice are killed by cervical dislocation method, and tumors are removed immediately and photographed. From day 0, the mice in each group are weighed every three days, and the weights are recorded. The weight average value of each group is calculated, and mouse weight variation curve is drawn according to statistical data. At the end of the treatment cycle, tumors are removed from anesthetized mice immediately and weighted, and the tumor weight of each group is recorded. The tumor inhibition rate (%) is calculated according to the following formula: […]

PANC-1 = assay: Cytotoxicity test (MTT, 72 h); conditions: Homo sapiens, PANC-1, 72 h, read-out: 50% Inhibiting Concentration value (IC50)
Procedure: as §1

143B = assay: Cytotoxicity test (MTT, 72 h); conditions: Homo sapiens, read-out: 50% Inhibiting Concentration value (IC50)
Procedure: as §2

[2] = Solubility test, equilibrium method, UV-visible spectrophotometry; assay type: physicochemical; conditions: thermodynamic from solid
How it was run: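 Equilibrium solubility measured by UV-visible spectrophotometry. Reference solution of known concentration (C0) prepared in methanol; test concentration calculated as Cx=(Ax/A0)C0 from absorbance ratio of test to reference solution.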

Hela = assay: Cytotoxicity test (MTT, 72 h); conditions: Homo sapiens, read-out: 50% Inhibiting Concentration value (IC50)
Procedure: as §2

TPC-1 = assay: Cytotoxicity test (MTT, 72 h); conditions: Homo sapiens, TPC1, 72 h, read-out: 50% Inhibiting Concentration value (IC50)
Procedure: as §1

[3] = system: colon cancer cells SW-480; assay: In vivo antitumor activity, tumor volume (Example 19); set-up: species or system mice; conditions: for Mouse Tumor Volume: 12.30 mg/kg i.v. once every three days, average, n = 6
PC3 = assay: Cytotoxicity test (MTT, 72 h); conditions: Homo sapiens, PC-3, 72 h, read-out: 50% Inhibiting Concentration value (IC50)
Procedure: as §2

HT-29 = assay: Cytotoxicity test (MTT, 72 h); conditions: Homo sapiens, HT-29, 72 h, read-out: 50% Inhibiting Concentration value (IC50)
Procedure: as §1

[4] = In vivo antitumor activity study, mouse weight (Example 19); set-up: species or system mice; conditions: 12.30 mg/kg i.v. once every three days
A549 = assay: Cytotoxicity test (MTT, 72 h); conditions: Homo sapiens, A549, 72 h, read-out: 50% Inhibiting Concentration value (IC50)
Procedure: as §2

K562 = assay: Cytotoxicity test (MTT, 72 h); conditions: Homo sapiens, K562, 72 h, read-out: 50% Inhibiting Concentration value (IC50)
Procedure: as §2

CCc1c2c(nc3ccc(OC(=O)NCCOCc4cn(CCO[C@H]5O[C@@H](CO)[C@H](O)[C@@H](O)[C@@H]5O)nn4)cc13)-c1cc3c(c(=O)n1C2)COC(=O)[C@]3(O)CC [Compound 67]
pIC50 (SW-480): 6.60 | pIC50 (HCT-116): 6.63 | pIC50 (HepG2): 5.98 | pIC50 (SKOV-3): 5.90 | pIC50 (BGC-823): 6.68 | pIC50 (MDA-MB-231): 6.06 | pIC50 (H1975): 5.17 | Mouse Weight ([1]; day 0, high-dose group (H) 12.30 mg/kg): 17.04 g | Mouse Weight ([1]; day 0, low-dose group (L) 3.075 mg/kg): 16.18 g | Mouse Weight ([1]; day 0, medium-dose group (M) 6.15 mg/kg): 18.28 g | Mouse Weight ([1]; day 3, high-dose group (H) 12.30 mg/kg): 16.15 g | Mouse Weight ([1]; day 3, low-dose group (L) 3.075 mg/kg): 16.28 g | Mouse Weight ([1]; day 3, medium-dose group (M) 6.15 mg/kg): 17.29 g | Mouse Weight ([1]; day 6, high-dose group (H) 12.30 mg/kg): 16.88 g | Mouse Weight ([1]; day 6, low-dose group (L) 3.075 mg/kg): 15.76 g | Mouse Weight ([1]; day 6, medium-dose group (M) 6.15 mg/kg): 16.82 g | Mouse Weight ([1]; day 9, high-dose group (H) 12.30 mg/kg): 16.57 g | Mouse Weight ([1]; day 9, low-dose group (L) 3.075 mg/kg): 16.28 g | Mouse Weight ([1]; day 9, medium-dose group (M) 6.15 mg/kg): 17.18 g | Mouse Weight ([1]; day 12, high-dose group (H) 12.30 mg/kg): 16.06 g | Mouse Weight ([1]; day 12, low-dose group (L) 3.075 mg/kg): 16.03 g | Mouse Weight ([1]; day 12, medium-dose group (M) 6.15 mg/kg): 16.74 g | Mouse Weight ([1]; day 15, high-dose group (H) 12.30 mg/kg): 16.32 g | Mouse Weight ([1]; day 15, low-dose group (L) 3.075 mg/kg): 16.04 g | Mouse Weight ([1]; day 15, medium-dose group (M) 6.15 mg/kg): 15.82 g | Mouse Weight ([1]; day 18, high-dose group (H) 12.30 mg/kg): 17.36 g | Mouse Weight ([1]; day 18, low-dose group (L) 3.075 mg/kg): 16.17 g | Mouse Weight ([1]; day 18, medium-dose group (M) 6.15 mg/kg): 16.27 g | Mouse Weight ([1]; day 21, high-dose group (H) 12.30 mg/kg): 16.78 g | Mouse Weight ([1]; day 21, low-dose group (L) 3.075 mg/kg): 16.48 g | Mouse Weight ([1]; day 21, medium-dose group (M) 6.15 mg/kg): 16.84 g | pIC50 (PANC-1): 5.54 | pIC50 (143B): 5.25 | solubility ([2]; aqueous buffer, PBS pH 7.4, read-out: Solubility in PBS (pH = 7.4)): 2110 µg/mL (≈ 2750 µM) | solubility ([2]; aqueous with cosolvent or surfactant or cyclodextrin, 0.1% aqueous solution of Tween-80, read-out: Solubility in 0.1% Tween-80): 1480 µg/mL (≈ 1930 µM) | solubility ([2]; saline or isotonic, normal saline, read-out: Solubility in Normal Saline (NS)): 3350 µg/mL (≈ 4370 µM) | solubility ([2]; water, read-out: Solubility in Water): 1260 µg/mL (≈ 1650 µM) | pIC50 (Hela): 5.54 | pIC50 (TPC-1): 5.09 | Mouse Tumor Volume ([3]; day 0): 227.31 mm^3 | Mouse Tumor Volume ([3]; day 3): 126.54 mm^3 | Mouse Tumor Volume ([3]; day 6): 142.84 mm^3 | Mouse Tumor Volume ([3]; day 9): 104.75 mm^3 | Mouse Tumor Volume ([3]; day 12): 73.72 mm^3 | Mouse Tumor Volume ([3]; day 15): 43.74 mm^3 | Mouse Tumor Volume ([3]; day 18): 12.46 mm^3 | Mouse Tumor Volume ([3]; day 21): 11.38 mm^3 | inhibition rates on colon cancer cell SW-480 compared with CPT-11 (in words) ([3]; dosage two-thirds of the molar fraction of CPT-11): significantly higher inhibition rates | pIC50 (PC3): 5.69 | pIC50 (HT-29): 5.29 | Mouse Weight ([4]; day 0): 23.97 g | Mouse Weight ([4]; day 3): 23.97 g | Mouse Weight ([4]; day 6): 23.57 g | Mouse Weight ([4]; day 9): 23.94 g | Mouse Weight ([4]; day 12): 23.58 g | Mouse Weight ([4]; day 15): 24.45 g | Mouse Weight ([4]; day 18): 24.86 g | Mouse Weight ([4]; day 21): 25.33 g | pIC50 (A549): 5.62 | pIC50 (K562): 6.71
